Laboratory results from patent publication US9796753B2, “N-substituted indenoisoquinolines and syntheses thereof” (Purdue Research Foundation, priority 2005, dated 2017).
Like-named read-outs stand apart in the source and are kept apart here.

Assays:
Format in all cases: cell-based
[1] = test system: prostate DU-145; test: COMPARE screening (NCI human cancer cell line screen), cytotoxicity GI50
Summary of the method: (§1)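 Compounds went into the NCI developmental therapeutics 60-cell-line screen at 100, 10, 1, 0.1 and 0.01 μM. After 48 h incubation, sulforhodamine B staining gave optical densities used to derive percentage growth.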

[2] = test system: lung HOP-62; test: as above
Summary of the method: as §1

[3] = test system: colon HCT-116; test: as above
Summary of the method: as §1

[4] = test system: melanoma UACC-62; test: as above
Summary of the method: as §1

[5] = test system: ovarian OVCAR-3; test: as above
Summary of the method: as §1

[6] = test system: renal SN12C; test: as above
Summary of the method: as §1

[7] = test system: CNS SF-539; test: as above
Summary of the method: as §1

[8] = test system: all human cancer cell lines successfully tested; test: NCI screen mean graph midpoint (MGM) for growth inhibition
Summary of the method: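 NCI60 panel cells exposed to compound at 100, 10, 1, 0.1 and 0.01 μM for 48 h, then sulforhodamine B staining. Percentage growth versus control plotted against log concentration; MGM is the midpoint across all lines tested.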

[9] = test system: breast MDA-MB-435; test: COMPARE screening (NCI human cancer cell line screen), cytotoxicity GI50
Experimental: COMPARE screening. The compounds described herein were examined for antiproliferative activity against the human cancer cell lines in the National Cancer Institute screen (COMPARE screening), in which the activity of each compound was evaluated with approximately 55 different cancer cell lines of diverse tumor origins. […] Therefore, the MGM value represents an overall assessment of toxicity of the compound across numerous cell lines.

[10] = Table 1, average GI50 of all cell lines tested (approximately 55), test range 10^−8 to 10^−4 molar
[11] = Homo sapiens, DU-145, read-out: cytotoxicity (GI50) prostate DU-145
[12] = Homo sapiens, HOP-62, read-out: cytotoxicity (GI50) lung HOP-62
[13] = Homo sapiens, HCT-116, read-out: cytotoxicity (GI50) colon HCT-116
[14] = Homo sapiens, UACC-62, read-out: cytotoxicity (GI50) melanoma UACC-62
[15] = Homo sapiens, OVCAR-3, read-out: cytotoxicity (GI50) ovarian OVCAR-3
[16] = Homo sapiens, SN12C, read-out: cytotoxicity (GI50) renal SN12C
[17] = Homo sapiens, CNSSF-539, read-out: cytotoxicity (GI50) CNS SF-539
[18] = Homo sapiens, MDA-MB-435, read-out: cytotoxicity (GI50) breast MDA-MB-435
[19] = prostate DU-145, concentration corresponding to 50% growth inhibition, read-out: cytotoxicity (GI50 in μM) prostate DU-145
[20] = lung HOP-62, concentration corresponding to 50% growth inhibition, read-out: cytotoxicity (GI50 in μM) lung HOP-62
[21] = colon HCT-116, concentration corresponding to 50% growth inhibition, read-out: cytotoxicity (GI50 in μM) colon HCT-116
[22] = melanoma UACC-62, concentration corresponding to 50% growth inhibition, read-out: cytotoxicity (GI50 in μM) melanoma UACC-62
[23] = ovarian OVCAR-3, concentration corresponding to 50% growth inhibition, read-out: cytotoxicity (GI50 in μM) ovarian OVCAR-3
[24] = renal SN12C, concentration corresponding to 50% growth inhibition, read-out: cytotoxicity (GI50 in μM) renal SN12C
[25] = CNS SF-539, concentration corresponding to 50% growth inhibition, read-out: cytotoxicity (GI50 in μM) CNS SF-539
[26] = all human cancer cell lines successfully tested
[27] = breast MDA-MB-435, concentration corresponding to 50% growth inhibition, read-out: cytotoxicity (GI50 in μM) breast MDA-MB-435

SMILES | GI50 [1] | GI50 [2] | GI50 [3] | GI50 [4] | GI50 [5] | GI50 [6] | GI50 [7] | MGM (mean GI50 across cell lines) [8, 10] | GI50 [9] | MGM (mean graph midpoint for growth inhibition) [8, 10] | further results
COc1cc2c3c(n(CCCN4CCN(C)CC4)c(=O)c2cc1OC)-c1cc2c(cc1C3=O)OCO2 [Compound 5t] | 10.7 µM | 18.2 µM | 1.48 µM | 15.1 µM | 15.1 µM | 11.5 µM | 17.8 µM | 12000 nM | > 100 µM | – | –
O=C1c2ccccc2-c2oc(=O)c3cc4c(cc3c21)OCO4 [Compound 4b] | > 100 µM | 53.7 µM | > 100 µM | > 100 µM | > 100 µM | > 100 µM | > 100 µM | 57500 nM | > 100 µM | – | –
Nn1c2c(c3ccccc3c1=O)C(=O)c1ccccc1-2 [Compound 5z, 6-Amino-5,6-dihydro-5,11-diketo-11H-indeno[1,2-c]isoquinoline] | – | – | – | – | – | – | – | 39800 nM | – | – | GI50 [1, 11]: > 50.1 µM; GI50 [2, 12]: 24.5 µM; GI50 [3, 13]: > 50.1 µM; GI50 [4, 14]: > 50.1 µM; GI50 [5, 15]: > 50.1 µM; GI50 [6, 16]: > 50.1 µM; GI50 [7, 17]: 28.2 µM; GI50 [9, 18]: > 50.1 µM
O=C1c2ccccc2-c2c1c1ccccc1c(=O)n2CCN1CCOCC1 [Compound 5j] | > 100 µM | > 100 µM | 36.3 µM | 29.5 µM | 81.3 µM | 93.3 µM | 85.1 µM | 67600 nM | > 100 µM | – | –
COc1ccc2c(c1)C(=O)c1c-2n(CCCN(C)C)c(=O)c2ccccc12 [Compound 5bq] | 0.257 µM | 0.078 µM | 0.102 µM | 1 µM | 0.427 µM | 0.245 µM | 0.24 µM | – | 0.617 µM | 0.300 ± 0.072 µM | –
COc1cc2c3c(n(CCCN4CCC(N)CC4)c(=O)c2cc1OC)-c1cc2c(cc1C3=O)OCO2.Cl.Cl [Compound 5u, 6-[3-(4-Aminopiperidinyl)-1-propyl]-5,6-dihydro-2,3-dimethoxy-8,9-methylenedioxy-5,11-dioxo-11H-indeno[1,2-c]isoquinoline Dihydrochloride] | 0.182 µM | 0.427 µM | 0.12 µM | 1.29 µM | – | 0.257 µM | 0.1 µM | – | 1.74 µM | 0.766 ± 0.254 µM | GI50 ([5]; Table 1, concentration corresponding to 50% growth inhibition, read-out: cytotoxicity (GI50) ovarian OVCAR-3): 0.832 µM
COc1ccc2c(c1)C(=O)c1c-2n(CCCN2CCOCC2)c(=O)c2ccccc12 [Compound 5bk] | 2.29 µM | 1.41 µM | 1.26 µM | 1.58 µM | 2.69 µM | 4.07 µM | 1.95 µM | – | 4.68 µM | 2.70 ± 0.125 µM | –
O=C1c2ccccc2-c2oc(=O)c3ccccc3c21 [Compound 4d, Benz[d]indeno[1,2-b]pyran-5,11-dione] | – | – | – | – | – | – | – | >100000 nM | – | – | GI50 [1, 11]: > 100 µM; GI50 [2, 12]: > 100 µM; GI50 [3, 13]: > 100 µM; GI50 [4, 14]: > 100 µM; GI50 [5, 15]: > 100 µM; GI50 [6, 16]: > 100 µM; GI50 [7, 17]: > 100 µM; GI50 [9, 18]: > 100 µM
COc1cc2c3c(n(CCCn4cccn4)c(=O)c2cc1OC)-c1cc2c(cc1C3=O)OCO2 [Compound 5m] | 0.363 µM | 0.447 µM | 1.99 µM | 0.269 µM | 56.2 µM | 0.316 µM | 0.398 µM | – | 7.08 µM | 2.16 ± 0.24 µM | –
COc1cc2c3c(n(CCCNCCCNCCCn4c5c(c6cc(OC)c(OC)cc6c4=O)C(=O)c4ccccc4-5)c(=O)c2cc1OC)-c1ccccc1C3=O.O=C(O)C(F)(F)F.O=C(O)C(F)(F)F [Compound 14l, Bis-1,3-{(5,6-dihydro-5,11-diketo-2,3-dimethoxy-11H-indeno[1,2-c]isoquinoline)-6-propylamino}propane Bis{trifluoroacetate)] | – | – | – | – | – | – | – | – | – | – | GI50 [1, 19]: 19.5 µM; GI50 [2, 20]: 1.51 µM; GI50 [3, 21]: 0.331 µM; GI50 [4, 22]: 4.27 µM; GI50 [5, 23]: 9.55 µM; GI50 [6, 24]: 0.24 µM; GI50 [7, 25]: 4.17 µM; MGM (mean GI50 across cell lines) [8, 26]: 6030 nM; GI50 [9, 27]: 3.98 µM
Cl.NCCCCCn1c2c(c3ccccc3c1=O)C(=O)c1ccccc1-2 [Compound 5ao, 6-(5-Aminopentyl)-5,6-dihydro-5,11-diketo-11H-indeno[1,2-c]isoquinoline Hydrochloride] | – | – | – | – | – | – | – | – | – | 0.471 ± 0.054 µM | GI50 [1, 11]: 0.347 µM; GI50 [2, 12]: 0.288 µM; GI50 [3, 13]: 0.2 µM; GI50 [4, 14]: 1.35 µM; GI50 [5, 15]: 0.708 µM; GI50 [6, 16]: 0.398 µM; GI50 [7, 17]: 0.871 µM; GI50 [9, 18]: 1.35 µM
CN(C)CCCn1c2c(c3cc4c(cc3c1=O)OCO4)C(=O)c1ccccc1-2 [Compound 5b] | 2.04 µM | < 0.01 µM | < 0.01 µM | 0.3 µM | 2.63 µM | 0.023 µM | 2.69 µM | 525 nM | 3.02 µM | – | –
O=C1c2ccccc2-c2oc(=O)c3cc([N+](=O)[O-])ccc3c21 [Compound 4c, 3-nitrobenz[d]indeno[1,2-b]pyran-5,11-dione] | – | – | – | – | – | – | – | 64600 nM | – | – | GI50 [1, 11]: > 100 µM; GI50 [2, 12]: 18.2 µM; GI50 [3, 13]: 47.9 µM; GI50 [4, 14]: 25.1 µM; GI50 [5, 15]: > 100 µM; GI50 [6, 16]: > 100 µM; GI50 [7, 17]: > 100 µM; GI50 [9, 18]: > 100 µM
NCCCn1c2c(c3ccccc3c1=O)C(=O)c1ccccc1-2 [Compound S-3, 5,6-dihyro-6-(3-amino-1-propyl)-5,11-dioxo-11H-indeno[1,2,c]isoquinoline, reference compound] | 0.22 µM | 0.2 µM | 0.18 µM | 0.26 µM | 1.38 µM | 0.16 µM | 0.25 µM | – | 0.78 µM | – | MGM (mean graph midpoint for growth inhibition) [8, 26]: 0.32 ± 0.23 µM
O=C(O)C(F)(F)F.O=C(O)C(F)(F)F.O=C1c2ccccc2-c2c1c1ccc([N+](=O)[O-])cc1c(=O)n2CCNCCCNCCn1c2c(c3ccc([N+](=O)[O-])cc3c1=O)C(=O)c1ccccc1-2 [Compound 14m, Bis-1,3-{(5,6-dihydro-5,11-diketo-3-nitro-11H-indeno[1,2-c]isoquinoline)-6-ethylamino}propane Bis{trifluoroacetate)] | – | – | – | – | – | – | – | – | – | – | GI50 [1, 19]: 0.813 µM; GI50 [2, 20]: 0.631 µM; GI50 [3, 21]: 0.044 µM; GI50 [4, 22]: 0.603 µM; GI50 [5, 23]: 0.245 µM; GI50 [6, 24]: 0.123 µM; GI50 [7, 25]: 0.324 µM; MGM (mean graph midpoint for growth inhibition) [8, 26]: 0.354 ± 0.184 µM; GI50 [9, 27]: 0.437 µM
